Test system: Ca^2+ influx in Jurkat T cells
Assay: Live cell Ca^2+ imaging (Fura-2) in Jurkat T cells
Assay type: cell-based, human
Conditions: 10 μM CPA, absence of extracellular Ca^2+, Fura-2
Method: Jurkat T cells were loaded with 4 μM Fura-2 AM (Life Technologies) for 60 min at 37 °C. Cells were then washed 3 times and incubated in Hank’s Balanced Salt Solution (HBSS) for 30 min at room temperature before use. Fluorescence at 340 nm and 380 nm excitation wavelengths was recorded on an inverted Nikon Ti-E microscope equipped with 340, 360 and 380 nm excitation filter wheels using NIS-Elements imaging software (Nikon Instruments Inc., Melville, NY, USA). Fura-2 ratios (F340/F380) reflect changes in [Ca^2+]i upon stimulation. Data were obtained from 100 to 250 cells in time-lapse images from each coverslip.
To test this hypothesis we performed live cell Ca^2+ imaging using the Ca^2+ indicator dye Fura-2 to determine the effect of Ktx-Sp2 on [Ca^2+]i in the presence of intracellular Ca^2+ store depletion by cyclopiazonic acid (CPA), an inhibitor of the sarcoplasmic reticulum Ca^2+-ATPase. […] When 2 mM Ca^2+ was added to the Ca^2+-free HBSS, we observed a large Ca^2+ influx into the cells. […] At 10 μM, Ktx-Sp2 decreased the F340/F380 ratio from 0.14 ± 0.02 to 0.05 ± 0.01 (n = 278) (Fig. 5b).

CC(=O)C1=C(O)[C@@H]2[C@H]3c4c[nH]c5cccc(c45)C[C@H]3C(C)(C)N2C1=O [CPA, cyclopiazonic acid, reference compound]
rise of [Ca^2+]i induced by CPA: relative small, transient rise of [Ca^2+]i

Reference: publication PMC6915869, “Immunosuppressive effects of a novel potassium channel toxin Ktx-Sp2 from Scorpiops Pocoki” (Cell & Bioscience, 2019)
